Where two headings read alike, the source gives them in different places.
Experiments:
[1] = system: CAPAN-1 (a BRCA-2-mutated pancreatic cancer cell line); assay: Cell proliferation assay, three-day, CellTiter-Glo, CAPAN-1; format: cell-based; conditions: Homo sapiens; for inhibition at 0.00508 µM: CAPAN-1, 0.00508 uM; for inhibition at 0.0152 µM: CAPAN-1, 0.0152 uM; for inhibition at 0.0457 µM: CAPAN-1, 0.0457 uM; for inhibition at […]: CAPAN-1, 0.14 uM; for inhibition at 0.41 µM: CAPAN-1, 0.41 uM; for inhibition at 1.23 µM: CAPAN-1, 1.23 uM; for inhibition at 3.7 µM: CAPAN-1, 3.70 uM; for inhibition at 11.11 µM: CAPAN-1, 11.11 uM; for inhibition at 33.33 µM: CAPAN-1, 33.33 uM; for inhibition at 100 µM: CAPAN-1, 100.00 uM
Description: (§1) A three-day assay was conducted. A cell suspension was prepared. Cell density was counted by an automated cell counter and then diluted to the required density, according to seeding density. 50 μL cells were seeded into 384-well plate in growth medium according to the plate map. The cells were incubated at 37 °C, 5% CO2 overnight.
(§2) 200× compound solution in DMSO was prepared and diluted with growth medium to 26× final concentration by addition of 26 μL 200× compounds to 174 μL growth medium. Then 2 μL of diluted compound solution was added to cells and the cell was incubated at 37 °C, 5% CO2 for 72 h.
(§3) The assay plate was equilibrated to room temperature prior to measurement. 15 μL of CellTiter-Glo Reagent was added into each well and the contents were mixed for 2 min on an orbital shaker to induce cell lysis. The cells were incubated at room temperature for 60 min to stabilize luminescent signal. Luminescence was recorded on the Envision system.

PARP-2 = target: T1, PARP-2 (Homo sapiens, UniProt Q9UGN5); assay: PARP-2 inhibition assay (PARP-2 Chemiluminescent Assay Kit, BPS Bioscience); format: biochemical; conditions: 10 nM compound
T1 construct: purchased BPS Bioscience 80552
T1 sequence (Q9UGN5 whole entry): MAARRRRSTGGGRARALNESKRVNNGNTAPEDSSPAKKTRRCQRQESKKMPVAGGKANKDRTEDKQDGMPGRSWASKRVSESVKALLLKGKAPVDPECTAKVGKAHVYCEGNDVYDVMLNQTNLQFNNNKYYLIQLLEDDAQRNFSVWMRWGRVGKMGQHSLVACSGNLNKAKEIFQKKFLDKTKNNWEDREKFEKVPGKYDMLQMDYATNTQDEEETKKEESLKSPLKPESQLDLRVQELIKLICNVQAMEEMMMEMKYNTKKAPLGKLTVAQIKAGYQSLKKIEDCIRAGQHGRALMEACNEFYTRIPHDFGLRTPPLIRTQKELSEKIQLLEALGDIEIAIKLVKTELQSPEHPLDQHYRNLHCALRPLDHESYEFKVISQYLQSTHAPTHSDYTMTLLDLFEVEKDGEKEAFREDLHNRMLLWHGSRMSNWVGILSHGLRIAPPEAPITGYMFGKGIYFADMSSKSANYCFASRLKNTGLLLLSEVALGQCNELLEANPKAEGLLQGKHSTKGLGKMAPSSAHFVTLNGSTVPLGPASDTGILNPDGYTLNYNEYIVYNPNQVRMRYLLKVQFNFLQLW
Description: (§4) The PARP-1 and PARP-2 inhibition assays were performed in outsourcing, by a CRO company, Shanghai Medicilon Inc. (Shanghai, China). […] Briefly, PARP-1 or PARP-2 biotinylated substrate was incubated with compounds or solvent control at varying concentrations and an assay buffer containing the PARP-1 or PARP-2 enzyme.

[2] = system: MDA-MB-436 (a BRCA-1-mutated breast cancer cell line); assay: Cell proliferation assay, three-day, CellTiter-Glo, MDA-MB-436; format: cell-based; conditions: for inhibition at 0.00508 µM / inhibition at 0.0152 µM / inhibition at 0.0457 µM / inhibition at 0.41 µM / inhibition at 1.23 µM / inhibition at 3.7 µM / inhibition at 11.11 µM / inhibition at 33.33 µM / inhibition at 100 µM / IC50: Homo sapiens; for inhibition at 0.00508 µM: MDA-MB-436, MDA-MB-436, Conc. 0.00508 uM; for inhibition at 0.0152 µM: MDA-MB-436, MDA-MB-436, Conc. 0.0152 uM; for inhibition at 0.0457 µM: MDA-MB-436, MDA-MB-436, Conc. 0.0457 uM; for inhibition at 0.41 µM: MDA-MB-436, MDA-MB-436, Conc. 0.41 uM; for inhibition at 1.23 µM: MDA-MB-436, MDA-MB-436, Conc. 1.23 uM; for inhibition at 3.7 µM: MDA-MB-436, MDA-MB-436, Conc. 3.70 uM; for inhibition at 11.11 µM: MDA-MB-436, MDA-MB-436, Conc. 11.11 uM; for inhibition at 33.33 µM: MDA-MB-436, MDA-MB-436, Conc. 33.33 uM; for inhibition at 100 µM: MDA-MB-436, MDA-MB-436, Conc. 100.00 uM
Description: as §1, §2, §3

PARP-1 = target: T2, PARP-1 (Homo sapiens, UniProt P09874); assay: PARP-1 inhibition assay (PARP-1 Chemiluminescent Assay Kit, BPS Bioscience); format: biochemical; conditions: 10 nM compound
T2 construct: purchased BPS Bioscience 80569
T2 sequence (P09874 whole entry): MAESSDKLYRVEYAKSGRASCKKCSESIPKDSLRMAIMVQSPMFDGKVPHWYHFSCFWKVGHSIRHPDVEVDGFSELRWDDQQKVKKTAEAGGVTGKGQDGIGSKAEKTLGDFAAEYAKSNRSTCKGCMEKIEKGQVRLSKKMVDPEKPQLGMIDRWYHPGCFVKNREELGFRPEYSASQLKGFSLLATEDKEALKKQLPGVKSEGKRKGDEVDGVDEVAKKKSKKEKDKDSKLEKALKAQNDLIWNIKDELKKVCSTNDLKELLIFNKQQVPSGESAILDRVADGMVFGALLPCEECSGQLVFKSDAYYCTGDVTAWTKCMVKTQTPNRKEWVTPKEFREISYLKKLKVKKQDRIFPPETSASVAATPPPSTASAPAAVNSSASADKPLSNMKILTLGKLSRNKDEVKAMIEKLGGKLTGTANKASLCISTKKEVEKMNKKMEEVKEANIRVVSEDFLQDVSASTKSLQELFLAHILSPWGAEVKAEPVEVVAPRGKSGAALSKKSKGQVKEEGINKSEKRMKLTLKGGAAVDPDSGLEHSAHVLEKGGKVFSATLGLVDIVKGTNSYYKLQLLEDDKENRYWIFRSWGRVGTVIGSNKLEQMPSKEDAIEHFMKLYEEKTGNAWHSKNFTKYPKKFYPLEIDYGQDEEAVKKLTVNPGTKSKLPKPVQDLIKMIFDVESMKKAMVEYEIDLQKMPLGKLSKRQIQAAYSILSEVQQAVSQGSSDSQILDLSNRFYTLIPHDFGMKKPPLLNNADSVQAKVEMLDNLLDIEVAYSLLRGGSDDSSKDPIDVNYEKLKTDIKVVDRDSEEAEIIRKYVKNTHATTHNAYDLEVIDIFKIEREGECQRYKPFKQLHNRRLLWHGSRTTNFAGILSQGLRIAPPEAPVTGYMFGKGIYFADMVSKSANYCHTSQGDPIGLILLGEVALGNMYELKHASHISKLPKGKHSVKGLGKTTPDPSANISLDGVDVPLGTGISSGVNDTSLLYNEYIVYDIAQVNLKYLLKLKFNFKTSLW
Description: as §4

In the case of `NC(=O)c1cccc2[nH]c(C3CCN(CC(O)c4ccccc4)C3)nc12` (stereo not drawn) [Compound 5cf, 2-(1-(2-Hydroxy-2-phenylethyl)pyrrolidin-3-yl)-1H-benzo[d]imidazole-4-carboxamide], the IC50 ([1]; CAPAN-1, 72 h, CellTiter-Glo, read-out: CAPAN-1 IC50) is reported as over 100 µM, the inhibition at 0.00508 µM ([1]; replicate 1, read-out: Inh % 1) is reported as -1.7% and the inhibition at 0.00508 µM ([1]; replicate 2, read-out: Inh % 2) is reported as -8.4%. For the same compound, the inhibition at 0.0152 µM ([1]; replicate 1, read-out: Inh % 1) was 3.2%, the inhibition at 0.0152 µM ([1]; replicate 2, read-out: Inh % 2) was -3.1% and the inhibition at 0.0457 µM ([1]; replicate 1, read-out: Inh % 1) was -6.9%. The inhibition at 0.0457 µM ([1]; replicate 2, read-out: Inh % 2) was -3.4%, the inhibition at […] ([1]; replicate 1, read-out: Inh % 1) was 10.3% and the inhibition at […] ([1]; replicate 2, read-out: Inh % 2) was -1.9%. For the same compound, the inhibition at 0.41 µM ([1]; replicate 1, read-out: Inh % 1) was 9.4%, the inhibition at 0.41 µM ([1]; replicate 2, read-out: Inh % 2) was 0.649% and the inhibition at 1.23 µM ([1]; replicate 1, read-out: Inh % 1) was 5.9%. It also gave an inhibition at 1.23 µM ([1]; replicate 2, read-out: Inh % 2) of 8.1%, an inhibition at 3.7 µM ([1]; replicate 1, read-out: Inh % 1) of 13.8% and an inhibition at 3.7 µM ([1]; replicate 2, read-out: Inh % 2) of 3.5%. It also gave an inhibition at 11.11 µM ([1]; replicate 1, read-out: Inh % 1) of 7.2%, an inhibition at 11.11 µM ([1]; replicate 2, read-out: Inh % 2) of -0.268% and an inhibition at 33.33 µM ([1]; replicate 1, read-out: Inh % 1) of 15.8%. The inhibition at 33.33 µM ([1]; replicate 2, read-out: Inh % 2) was -1.9%, the inhibition at 100 µM ([1]; replicate 1, read-out: Inh % 1) was 29.7% and the inhibition at 100 µM ([1]; replicate 2, read-out: Inh % 2) was 21.1%. The inhibition at 0.01 µM (PARP-2; supplement sheet, read-out: 10 nM inhibition% PAPR-2) was 8.96%, the inhibition at 0.01 µM (PARP-2; read-out: PARP-2 Inhibition % (10 nM)) was 9% and the inhibition at 0.00508 µM ([2]; replicate 1, read-out: Inh % 1) was -0.144%. It also gave an inhibition at 0.00508 µM ([2]; replicate 2, read-out: Inh % 2) of -3.2%, an inhibition at 0.0152 µM ([2]; replicate 1, read-out: Inh % 1) of -5.7% and an inhibition at 0.0152 µM ([2]; replicate 2, read-out: Inh % 2) of -4.4%. The inhibition at 0.0457 µM ([2]; replicate 1, read-out: Inh % 1) was -8.5%, the inhibition at 0.0457 µM ([2]; replicate 2, read-out: Inh % 2) was -9.4% and the inhibition at 0.41 µM ([2]; replicate 1, read-out: Inh % 1) was -14.6%. It also gave an inhibition at 0.41 µM ([2]; replicate 2, read-out: Inh % 2) of -10.9%, an inhibition at 1.23 µM ([2]; replicate 1, read-out: Inh % 1) of -9.9% and an inhibition at 1.23 µM ([2]; replicate 2, read-out: Inh % 2) of -7%. It also gave an inhibition at 3.7 µM ([2]; replicate 1, read-out: Inh % 1) of 1.6%, an inhibition at 3.7 µM ([2]; replicate 2, read-out: Inh % 2) of -6.5% and an inhibition at 11.11 µM ([2]; replicate 1, read-out: Inh % 1) of -3.4%. For the same compound, the inhibition at 11.11 µM ([2]; replicate 2, read-out: Inh % 2) was -9.3%, the inhibition at 33.33 µM ([2]; replicate 1, read-out: Inh % 1) was 17.3% and the inhibition at 33.33 µM ([2]; replicate 2, read-out: Inh % 2) was 8.3%. For the same compound, the inhibition at 100 µM ([2]; replicate 1, read-out: Inh % 1) was 86.9%, the inhibition at 100 µM ([2]; replicate 2, read-out: Inh % 2) was 70.9% and the IC50 ([2]; MDA-MB-436, 72 h, CellTiter-Glo, read-out: MDA-MB-436 IC50) was 61 µM. For the same compound, the IC50 ([2]; MDA-MB-436, 72 h, supplement Summary sheet, read-out: IC50) was 61 µM, the IC50 ([2]; MDA-MB-436, curve fit list, no unit in the cell, concentration in uM, read-out: IC50) was 61 µM and the LogIC50 ([2]; MDA-MB-436, curve fit on Log (uM) concentrations) was 1.786. It also gave a Top ([2]; MDA-MB-436, curve fit parameter (Inh %), '= 100.0' is a constrained value) of 104.3, an inhibition at 0.01 µM (PARP-1; supplement sheet, read-out: 10 nM inhibition% PAPR-1) of 5.03% and an inhibition at 0.01 µM (PARP-1; read-out: PARP-1 Inhibition % (10 nM)) of 5%.

— publication PMC6572064, “Discovery of 2-(1-(3-(4-Chloroxyphenyl)-3-oxo- propyl)pyrrolidine-3-yl)-1H-benzo[d]imidazole-4-carboxamide: A Potent Poly(ADP-ribose) Polymerase (PARP) Inhibitor for Treatment of Cancer” (Molecules, 2019)
